In patent US20250197436A1, “GALACTOOLIGOSACCHARIDE COMPOSITION” (priority 2022, published 2025):

System: microbiota present in the faecal samples
Test: Faecal fermentation, distribution of oligosaccharides (HPAEC-PAD peak areas)
Description: HPAEC-PAD (high performance anion exchange chromatography) equipped with a PA-1 column was used for separation of mono- and oligosaccharides of the different samples. […] The samples as used for GPC were 100-fold diluted with DMSO before injection.
The distribution of oligosaccharides in the mixtures was also monitored over this time period using the method described above in relation to Table 2.

[1] = Comp. Ex. 1 sample, 6 h, Donor A
[2] = Comp. Ex. 1 sample, 6 h, Donor B
[3] = Comp. Ex. 1 sample, 6 h, Donor C
[4] = Comp. Ex. 1 sample, 24 h, Donor A
[5] = Comp. Ex. 1 sample, 24 h, Donor B
[6] = Comp. Ex. 1 sample, 24 h, Donor C
[7] = Comp. Ex. 1 sample, 48 h, Donor A
[8] = Comp. Ex. 1 sample, 48 h, Donor B
[9] = Comp. Ex. 1 sample, 48 h, Donor C
[10] = Example 2 sample, 24 h, Donor A
[11] = Example 2 sample, 24 h, Donor B
[12] = Example 2 sample, 24 h, Donor C
[13] = Example 2 sample, 48 h, Donor A
[14] = Example 2 sample, 48 h, Donor B
[15] = Example 2 sample, 48 h, Donor C

Peak areas (Comp. Ex. 1 sample, 0 h)	Peak areas [1]	Peak areas [2]	Peak areas [3]	Peak areas [4]	Peak areas [5]	Peak areas [6]	Peak areas [7]	Peak areas [8]	Peak areas [9]	Peak areas (Example 2 sample, 0 h)	Peak areas (Example 2 sample, 6 h, Donor A)	Peak areas (Example 2 sample, 6 h, Donor B)	Peak areas (Example 2 sample, 6 h, Donor C)	Peak areas [10]	Peak areas [11]	Peak areas [12]	Peak areas [13]	Peak areas [14]	Peak areas [15]	Compound
1.4	1.4	0.8	0.9	0.4	0.4	0.4	0.1	1.1	0.1	28.9	1.1	5.4	1.2	0.4	0.7	0.3	0.3	0.7	0.2	OC[C@H]1O[C@@H](O[C@H]2[C@@H](O)[C@@H](CO)O[C@@H](O[C@H]3[C@H](O)[C@@H](O)C(O)O[C@@H]3CO)[C@@H]2O)[C@H](O)[C@@H](O)[C@H]1O (stereo partly drawn) [Cpd. ID 12, D-Gal-(β1-3)-D-Gal-(β1-4)-D-Glu]
19.5	2.9	34.1	0.2	0.0	0.1	0.0	0.0	0.0	0.0	17.5	2.6	26.9	0.3	0.0	0.0	0.0	0.0	0.0	0.0	O=C[C@H](O)[C@@H](O)[C@H](O)[C@H](O)CO [Glucose]
4.7	0.1	2.0	1.0	0.2	0.4	0.0	0.0	0.3	0.0	12.8	1.1	2.0	0.4	0.0	0.0	0.0	0.1	0.4	0.1	OC[C@H]1O[C@@H](O[C@H]2[C@@H](O)[C@@H](CO)O[C@@H](O[C@H]3[C@H](O)[C@@H](CO)OC(O)[C@@H]3O)[C@@H]2O)[C@H](O)[C@@H](O)[C@H]1O (stereo partly drawn) [Cpd. ID 29, D-Gal-(β1-3)-D-Gal-(β1-3)-D-Glu]
2.6	0.0	1.3	0.3	0.0	0.5	0.0	0.0	0.6	0.0	12.6	0.0	1.8	0.9	0.0	0.5	0.0	0.1	0.0	0.2	OC[C@H]1O[C@@H](O[C@H]2[C@@H](O)[C@@H](CO)O[C@@H](O[C@H]3C(O)O[C@H](CO)[C@@H](O)[C@@H]3O)[C@@H]2O)[C@H](O)[C@@H](O)[C@H]1O (stereo partly drawn) [Cpd. ID 30, D-Gal-(β1-3)-D-Gal-(β1-2)-D-Glu]
0.5	2.4	45.1	0.7	0.0	0.1	0.0	0.0	0.0	0.0	1.3	2.1	47.3	0.8	0.0	0.1	0.0	0.0	0.0	0.0	O=C[C@H](O)[C@@H](O)[C@@H](O)[C@H](O)CO [Galactose]
16.2	0.0	0.0	0.0	0.0	0.0	0.0	0.0	0.0	0.0	24	1.3	0.0	0.0	0.0	0.0	0.0	0.0	0.0	0.0	OC[C@H]1O[C@@H](OC[C@H]2OC(O)[C@H](O)[C@@H](O)[C@@H]2O)[C@H](O)[C@@H](O)[C@H]1O (some centres unmarked) [Allolactos, Allolactose]
0.8	0.0	0.5	0.3	0.5	0.5	0.0	0.0	0.4	0.0	–	0.0	2.0	0.3	0.2	0.3	0.0	0.0	0.0	0.0	OC[C@H]1O[C@@H](O[C@H]2[C@@H](O)[C@@H](CO)O[C@@H](O[C@H]3[C@@H](O)[C@@H](CO)O[C@@H](O[C@H]4[C@H](O)[C@@H](O)C(O)O[C@@H]4CO)[C@@H]3O)[C@@H]2O)[C@H](O)[C@@H](O)[C@H]1O (stereo partly drawn) [Cpd. ID 31, D-Gal-(β1-3)-D-Gal-(β1-3)-D-Gal-(β1-4)-D-Glu]
27.6	1.9	5.7	1.6	1.9	2.0	0.7	0.0	1.9	0.2	20.4	3.2	4.5	1.6	1.2	1.7	0.5	0.3	2.6	0.6	OC[C@H]1O[C@@H](O[C@@H]2[C@H](O)[C@@H](O)[C@H](O[C@H]3[C@H](O)[C@@H](O)C(O)O[C@@H]3CO)O[C@@H]2CO)[C@H](O)[C@@H](O)[C@H]1O (stereo partly drawn) [Cpd. ID 11, D-Gal-(β1-4)-D-Gal-(β1-4)-D-Glu]

Compound	Peak areas (Comp. Ex. 1 sample, 0 h)	Peak areas [1]	Peak areas [2]	Peak areas [3]	Peak areas [4]	Peak areas [5]	Peak areas [6]	Peak areas [7]	Peak areas [8]	Peak areas [9]	Peak areas (Example 2 sample, 0 h)	Peak areas (Example 2 sample, 6 h, Donor A)	Peak areas (Example 2 sample, 6 h, Donor B)	Peak areas (Example 2 sample, 6 h, Donor C)	Peak areas [10]	Peak areas [11]	Peak areas [12]	Peak areas [13]	Peak areas [14]	Peak areas [15]
OC[C@H]1O[C@@H](O[C@H]2[C@H](O)[C@@H](O)C(O)O[C@@H]2CO)[C@H](O)[C@@H](O)[C@H]1O (some centres unmarked) [Lactose]	48.4	0.7	1.9	0.4	0.4	0.5	0.4	0.3	0.5	0.3	30.9	0.3	5.3	0.6	0.3	0.4	0.4	0.3	0.5	0.3
